The values that follow come from paper PMC11870035, “Discovery of Substituted 5-(2-Hydroxybenzoyl)-2-Pyridone Analogues as Inhibitors of the Human Caf1/CNOT7 Ribonuclease” (Molecules, 2024).

Bounds are passed on as bounds.

T1 sequence (Q9UIV1 whole entry): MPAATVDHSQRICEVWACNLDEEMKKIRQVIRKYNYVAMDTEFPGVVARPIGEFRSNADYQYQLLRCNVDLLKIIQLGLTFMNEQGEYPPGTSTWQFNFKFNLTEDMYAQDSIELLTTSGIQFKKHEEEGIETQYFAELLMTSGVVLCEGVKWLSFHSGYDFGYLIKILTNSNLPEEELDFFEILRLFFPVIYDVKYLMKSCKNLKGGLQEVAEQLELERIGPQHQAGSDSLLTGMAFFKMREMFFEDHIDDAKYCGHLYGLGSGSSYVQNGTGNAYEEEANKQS

One assay concerns the target T1, human nuclease enzyme Caf1/CNOT7 (Homo sapiens, UniProt Q9UIV1). The assay can be described thus: fluorescence-based nuclease activity assay. The class given is biochemical. The conditions noted are these: mean ± standard error; 0.4 µM Caf1/CNOT7, 1 µM Flc-RNA substrate, 30 °C, 60 min; read-out: IC50 versus Caf1/CNOT7. As for the experimental part: Purity of the compounds was verified by LC-MS. The inhibitory activity of the compounds was assessed using a fluorescence-based activity assay described before. Briefly, purified Caf1/CNOT7 was pre-incubated in the presence of compound or vehicle only (DMSO) before addition of a Fluorescein-labelled RNA oligonucleotide substrate. The composition of the final reaction mixture (10 µL) was: 0.4 µM Caf1/CNOT7, 1 µM Flc-RNA substrate, 20 mM Tris–HCl pH 7.9, 50 mM NaCl, 2 mM MgCl2, 10% glycerol, 1 mM β-mercaptoethanol and 5% DMSO. After incubation at 30 °C for 60 min, 10 µL probe mix (5 µM TAMRA-DNA probe, 1% SDS and 20 mM Tris–HCl pH 8.0, 0.5 mM EDTA) was added. Fluorescence intensity was measured using a BioTek Synergy HT plate reader (Agilent, Cheshire, UK) using the filters 485 ± 20 nm (excitation) and 528 ± 20 nm (emission). Raw data were analysed in Microsoft Excel and non-linear regression was carried out using GraphPad Prism 6. Statistical analysis (one-way ANOVA with post-hoc Dunnett’s test) was also carried out using GraphPad Prism.
For the compound `Cc1cccc(-n2cc(C(=O)c3cc(Br)ccc3O)cc(C#N)c2=O)c1` [Compound 15], the IC50 is 31.8 ± 1.8 µM.

On to `N#Cc1cc(C(=O)c2cc(Br)ccc2O)cn(-c2ccccc2)c1=O` [Compound 12], for which the IC50 was 108 ± 4 µM.

As for `COc1ccccc1-n1cc(C(=O)c2cc(Br)ccc2O)cc(C#N)c1=O` [Compound 6], the IC50 came to 80.9 ± 9.2 µM.

As to `COc1ccc(-n2cc(C(=O)c3cc(Br)ccc3O)cc(C#N)c2=O)cc1` [Compound 5], the IC50 is 81.1 ± 5 µM.

In the case of `COc1cc(Cl)c(C)cc1-n1cc(C(=O)c2cc(Br)ccc2O)cc(C#N)c1=O` [Compound 1, 5-(5-bromo-2-hydroxybenzoyl)-1-(4-chloro-2-methoxy-5-methylphenyl)-2-oxo-1,2-dihydropyridine-3-carbonitrile], the IC50 is 24.1 ± 3.3 µM.

For the compound `N#Cc1cc(C(=O)c2cc(Br)ccc2O)cn(-c2cc(Cl)cc(Cl)c2)c1=O` [Compound 17], the IC50 turned out to be 19.2 ± 1.1 µM.

In the case of `N#Cc1cc(C(=O)c2cc(Br)ccc2O)cn(-c2ccccc2Oc2ccccc2)c1=O` [Compound 4], the IC50 came out at 39.3 ± 1.6 µM.

As for `CCOC(=O)c1ccc(-n2cc(C(=O)c3cc(Br)ccc3O)cc(C#N)c2=O)cc1` [Compound 9], the IC50 worked out at 33.2 ± 0.5 µM.

As to `N#Cc1cc(C(=O)c2cc(Br)ccc2O)cn(-c2ccccc2Cl)c1=O` [Compound 3], the IC50 was 65.6 ± 3.3 µM.

Take `Cc1ccc(-n2cc(C(=O)c3cc(Br)ccc3O)cc(C#N)c2=O)cc1` [Compound 14]: the IC50 was determined as 57.5 ± 4.7 µM.

As to `N#Cc1cc(C(=O)c2cc(Br)ccc2O)cn(-c2ccc(F)c(Cl)c2)c1=O` [Compound 13], the IC50 stood at 47 ± 2.7 µM.

Consider `Cc1ccccc1-n1cc(C(=O)c2cc(Br)ccc2O)cc(C#N)c1=O` [Compound 16], for which the IC50 was found to be 44.5 ± 3.6 µM.

Take `N#Cc1cc(C(=O)c2cc(Br)ccc2O)cn(-c2ccc(Cl)cc2)c1=O` [Compound 8]: the IC50 was determined as 32.2 ± 1.6 µM.

Consider `N#Cc1cc(C(=O)c2cc(Br)ccc2O)cn(-c2cccc(C(F)(F)F)c2)c1=O` [Compound 10], for which the IC50 came out at 42.1 ± 1.4 µM.

As to `COc1cc(Cl)c(C)cc1-n1cc(C(=O)c2cc(F)ccc2O)cc(C#N)c1=O` [Compound 11], the IC50 came to 33.6 ± 1.1 µM.

On to `CCc1ccc(-n2cc(C(=O)c3cc(Br)ccc3O)cc(C#N)c2=O)cc1` [Compound 7], for which the IC50 was determined as 39 ± 2.6 µM.

The assay is the same for the next values; noted with them: ratio of IC50 values versus compound 1.
On to `N#Cc1cc(C(=O)c2cc(Br)ccc2O)cn(-c2ccccc2)c1=O` [Compound 12], for which the “fold lower potency compared to 1” value is reported as 4–5 fold.

Consider `COc1cc(Cl)c(C)cc1-n1cc(C(=O)c2cc(F)ccc2O)cc(C#N)c1=O` [Compound 11], for which the “fold lower potency compared to 1” value is less than 2 fold.

The next assay addresses T1, human nuclease enzyme Caf1/CNOT7.
Test: not given
The arrangement: method as in PMID 24170810. The conditions noted are these: n = 3; read-out: originally reported IC50 versus Caf1/CNOT7; cited from earlier work.
In the case of `COc1cc(Cl)c(C)cc1-n1cc(C(=O)c2cc(Br)ccc2O)cc(C#N)c1=O`, the IC50 was 14.6 ± 3.1 µM.

Another assay concerns Caf1/CNOT7.
Test: not given
The conditions noted are these: cited from earlier work. The arrangement: method as in PMID 24170810.
Take `COc1cc(Cl)c(C)cc1-n1cc(C(=O)c2cc(Br)ccc2O)cc(C#N)c1=O` [Compound 1, 5-(5-bromo-2-hydroxybenzoyl)-1-(4-chloro-2-methoxy-5-methylphenyl)-2-oxo-1,2-dihydropyridine-3-carbonitrile]: the “activity in gel-based assay” value is “confirmed” and the selectivity entry is recorded as “selective to Caf1/CNOT7”.
